Earlier results as cited in patent US12473247B2, “Encoded design integrated synthesis of nucleic acids, and phospholipids, and related pharmaceutical products” (priority 2023, dated 2025).

Key:
[1] = ratio relative to cortisol = 1; pharmacological potency of corticosteroids

| SMILES | solubility in aqueous | relative activity of dexamethasone:prednisolone:cortisol [1] |
| --- | --- | --- |
| c1ccc2c(c1)ccc1c3ccccc3ccc21 [chrysene] | insoluble |  |
| C[C@]12CCC(=O)C=C1CC[C@@H]1[C@@H]2[C@@H](O)C[C@@]2(C)[C@H]1CC[C@]2(O)C(=O)CO [cortisol] |  | ~1 |
| C[C@]12C=CC(=O)C=C1CC[C@@H]1[C@@H]2[C@@H](O)C[C@@]2(C)[C@H]1CC[C@]2(O)C(=O)CO [prednisolone] |  | ~4 |
